Experimental data taken from patent EP4813980A1, “EP300/CBP REGULATOR, AND PREPARATION METHOD THEREFOR AND USE THEREOF” (Miracure Biotechnology Limited, priority 2023, dated 2025).

Legend:
BRD4 = BRD4 (Homo sapiens, UniProt O60885); experiment: BRD4 counter-assay, tabulated with the CBP AlphaLISA test; assay type: binding; settings: unit inferred
OPM-2 cells = experiment: Cell growth inhibition, CellTiter-Glo, 72 h; assay type: cell-based; settings: Homo sapiens, 72 h culture, mean of N=2
Summary of the method: (§1)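 Cells seeded at 5×10^3/well in RPMI-1640 with 10% FBS, compound added next day at 0.5% DMSO final, 72 h at 37°C. CellTiter-Glo luminescence read; % inhibition normalised to 0.5% DMSO (0%) and 1% Tween 20 (100%), plotted against concentration in nM; mean ± SEM, N=2.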

22RV1 cells = experiment: Cell growth inhibition, CellTiter-Glo, 72 h; assay type: cell-based; settings: Homo sapiens, 72 h culture, mean of N=2
Summary of the method: as §1

vCap cells = experiment: Cell growth inhibition, CellTiter-Glo, 72 h; assay type: cell-based; settings: Homo sapiens, 72 h culture, mean of N=2
Summary of the method: as §1

MM1S cells = experiment: Cell growth inhibition, CellTiter-Glo, 72 h; assay type: cell-based; settings: 72 h culture, mean of N=2
Summary of the method: as §1

CBP bromodomain = molecular target: T1, CBP bromodomain (Homo sapiens, UniProt Q92793); experiment: CBP AlphaLISA Assay Kit: binding of CBP bromodomain to acetylated histone substrate; settings: 30 min incubation with CBP and biotinylated substrate, N=2, unit inferred
T1 construct: purchased
T1 sequence (Q92793 1085-1192 limits assumed): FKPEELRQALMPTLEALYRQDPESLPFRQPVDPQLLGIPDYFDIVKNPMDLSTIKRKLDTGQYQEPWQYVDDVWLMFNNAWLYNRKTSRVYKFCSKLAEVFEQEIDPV
Experimental: The biochemical activity test of CBP preparations was detected using CBP AlphaLISA® Assay Kit. The detection principle is based on the binding of CBP bromodomain to acetylated histone substrate. The compounds were incubated with CBP and biotinylated substrate for 30 min, followed by the addition of acceptor beads for 15 min and donor beads for 15 min. Alpha counts were read, data were analyzed using Prism 7.0 and IC50 values were calculated.

| SMILES | IC50 (BRD4) [nM] | IC50 (OPM-2 cells) [nM] | IC50 (22RV1 cells) [nM] | IC50 (vCap cells) [nM] | IC50 (MM1S cells) [nM] | IC50 (CBP bromodomain) [nM] | IC50 (MM1S cells; Homo sapiens, MM1.S) [nM] |
| --- | --- | --- | --- | --- | --- | --- | --- |
| CO[C@H]1CC[C@H](n2c([C@@H]3CCCC(=O)N3c3ccc(F)c(F)c3)nc3cc(-c4c(C)noc4C)ccc32)CC1 [CCS1477] | 7250 | 37 | 2520 | 140 | 220 | – | – |
| C=CC(=O)N[C@H]1CC[C@@H](c2cc3c(c(N4CCCc5cc(-c6cnn(C)c6)c(C(F)F)cc54)c2)CN(C(C)=O)C3)CC1 [Compound 1339] | 7430 | 8 | 2500 | – | – | 4.7 | 48 |
| C=CS(=O)(=O)N[C@H]1CC[C@H](c2cc3c(c(N4CCCc5cc(-c6cnn(C)c6)c(C(F)F)cc54)c2)CN(C(C)=O)C3)CC1 [Compound 1343] | 7880 | 8 | 205 | – | – | 7.5 | 39 |
| C=CS(=O)(=O)N1CCC(c2cc3c(c(N4CCCc5cc(-c6cnn(C)c6)c(C(F)F)cc54)c2)CN(C(C)=O)C3)CC1 [Compound 1344] | 7920 | 15 | 263 | 33 | – | 7 | 68 |
| C=CS(=O)(=O)N[C@H]1CC[C@@H](c2cc3c(c(N4CCCc5cc(-c6cnn(C)c6)c(C(F)F)cc54)c2)CN(C(C)=O)C3)CC1 [Compound 1345, N-((1s,4s)-4-(2-acetyl-7-(7-(difluoromethyl)-6-(1-methyl-1H-pyrazol-4-yl)-3,4-dihydroquinolin-1(2H)-yl)isoindolin-5-yl)cyclohexyl)ethenesulfonamide] | > 10000 | 4 | 48 | 12 | – | 9.3 | 15 |
| C=CS(=O)(=O)N1CCC(c2cc3c(c(N4CCCc5cc(-c6cnn(C)c6)c(C(F)F)cc54)c2)CN(C(=O)NC)CC3)CC1 [Compound 1347] | > 10000 | 2 | 155 | – | – | 7.5 | 26 |
| CC(=O)N1Cc2cc(C3CCN(C(=O)/C=C/CN(C)C)CC3)cc(N3CCCc4cc(-c5cnn(C)c5)c(C(F)F)cc43)c2C1 [Compound 1357] | 5710 | – | 5420 | – | – | 0.96 | 58 |
| CC(=O)N1Cc2cc(C3CCN(Cc4ccc(COc5cccc6c5CN(C5CCC(=O)NC5=O)C6=O)cc4)CC3)cc(N3CCCc4cc(-c5cnn(C)c5)c(C(F)F)cc43)c2C1 (stereo not shown) [Compound 2006, 3-[4-({4-[(4-{2-acetyl-7-[7-(difluoromethyl)-6-(1-methylpyrazol-4-yl)-3,4-dihydro-2H-quinolin-1-yl]-1 ,3-dihydroisoindol-5-yl}piperidin-1-yl)methyl]phenyl}methoxy)-1-oxo-3H-isoindol-2-yl]piperidine-2,6-dione] | – | 0.19 | 0.47 | 0.4 | – | – | 0.27 |
| CNC(=O)N1CCc2cc(C3CCN(C(=O)CCCCCCCCNc4ccc5c(c4)n(C)c(=O)n5C4CCC(=O)NC4=O)CC3)cc(N3CCCc4cc(-c5cnn(C)c5)c(C(F)F)cc43)c2C1 (stereo not shown) [Compound 2018] | – | 0.05 | 0.01 | < 0.005 | – | – | 0.1 |
| CC(=O)N1Cc2cc(C3CCN(CC4CCN(c5ccc6c(c5)CN(C5CCC(=O)NC5=O)C6=O)CC4)CC3)cc(N3CCCc4cc(-c5cnn(C)c5)c(C(F)F)cc43)c2C1 (stereo not shown) [Compound 2058] | – | 0.23 | 0.31 | 0.29 | – | – | 0.3 |
| CC(=O)N1Cc2cc(C3CCN(CC4CCN(c5ccc6c(c5)n(C)c(=O)n6C5CCC(=O)NC5=O)CC4)CC3)cc(N3CCCc4cc(-c5cnn(C)c5)c(C(F)F)cc43)c2C1 (stereo not shown) [Compound 2068] | – | 0.04 | 0.06 | 0.07 | – | – | 0.07 |
| CC(=O)N1Cc2cc(C3CCN(c4cccc5c4CN(C4CCC(=O)NC4=O)C5=O)CC3)cc(N3CCCc4cc(-c5cnn(C)c5)c(C(F)F)cc43)c2C1 (stereo not shown) [Compound 2080, 3-[4-(4-{2-acetyl-7-[7-(difluoromethyl)-6-(1-methylpyrazol-4-yl)-3,4-dihydro-2H-quinolin-1-yl]-1,3-dihydroisoindol-5-yl}piperidin-1-yl)-1-oxo-3H-isoindol-2-yl]piperidine-2,6-dione] | – | 0.52 | 3.97 | 1.17 | – | – | 1.16 |
| CC(=O)N1Cc2cc(C3CCN(CC4CCN(c5ccc6c(c5)C(=O)N(C5CCC(=O)NC5=O)C6=O)CC4)CC3)cc(N3CCCc4cc(-c5cnn(C)c5)c(C(F)F)cc43)c2C1 (stereo not shown) [Compound 2085] | – | 2 | 4 | 2 | – | – | 2 |
| CNC(=O)N1CCc2c(c(N3CCCc4cc(-c5cnn(C)c5)c(C(F)F)cc43)nn2C2CCOCC2)C1 [GNE-781] | – | 8 | 4240 | 2150 | – | – | 104 |
